Experimental data from ChEMBL document CHEMBL4811223, “Arenarosides A-G, Polyhydroxylated Oleanane-Type Saponins from Polycarpaea arenaria and their Cytotoxic and Antiangiogenic Activities” (J Nat Prod, 2021).
Blank lines part the entries; values can stand above or below the molecule they belong to.

Key:
PC-3 = test: Cytotoxicity against human PC-3 cells assessed as cell growth inhibition after 48 hrs by MTT assay; type: functional, cell-based; settings: PC-3, 48 h
RT-112 = test: Cytotoxicity against human RT-112 cells assessed as cell growth inhibition after 48 hrs by MTT assay; type: functional, cell-based; settings: RT-112, 48 h
[1] = Antiangiogenic activity in endothelial cells assessed as inhibition of tube formation incubated for 18 hrs by matrigel-based inverted microscopic analysis; type: functional; settings: Endothelial cell
HCT-116 = test: Cytotoxicity against human HCT-116 cells assessed as cell growth inhibition after 48 hrs by MTT assay; type: functional, cell-based; settings: HCT-116, 48 h
A549 = test: Cytotoxicity against human A549 cells assessed as cell growth inhibition after 48 hrs by MTT assay; type: functional, cell-based; settings: A549, 48 h

- IC50 [1]: 15.9 µM
Compound: CC(=O)OC[C@@]12[C@H](O)[C@H](O)[C@]3(C)C(=CC[C@@H]4[C@@]5(C)CC[C@H](O[C@@H]6OC[C@H](O[C@@H]7O[C@H](CO)[C@@H](O)[C@H](O)[C@H]7O[C@@H]7OC[C@@H](O)[C@H](O)[C@H]7O)[C@H](O)[C@H]6O[C@@H]6O[C@H](CO)[C@@H](O)[C@H](O)[C@H]6O)C(C)(C)[C@@H]5CC[C@]43C)[C@@H]1CC(C)(C)[C@@H](OC(C)=O)[C@@H]2O
- IC50 (PC-3): > 10 µM
- IC50 (RT-112): > 10 µM
- IC50 (HCT-116): > 10 µM
- IC50 (A549): > 10 µM

- IC50 [1]: 35.8 µM
Compound: CC(=O)OC[C@@]12[C@H](O)[C@H](O)[C@]3(C)C(=CC[C@@H]4[C@@]5(C)CC[C@H](O[C@@H]6OC[C@H](O[C@@H]7O[C@H](CO)[C@@H](O)[C@H](O)[C@H]7O[C@@H]7OC[C@@H](O)[C@H](O)[C@H]7O)[C@H](O)[C@H]6O[C@@H]6O[C@H](CO)[C@@H](O)[C@H](O)[C@H]6O)C(C)(C)[C@@H]5CC[C@]43C)[C@@H]1CC(C)(C)C[C@@H]2O
- IC50 (PC-3): > 10 µM
- IC50 (RT-112): 7.8 µM
- IC50 (HCT-116): 9.8 µM
- IC50 (A549): > 10 µM

- IC50 [1]: 45.9 µM
Compound: CC1(C)C[C@H](O)[C@]2(CO)[C@H](O)[C@H](O)[C@]3(C)C(=CC[C@@H]4[C@@]5(C)CC[C@H](O[C@@H]6OC[C@H](O[C@@H]7O[C@H](CO)[C@@H](O)[C@H](O)[C@H]7O[C@@H]7OC[C@@H](O)[C@H](O)[C@H]7O)[C@H](O)[C@H]6O[C@@H]6O[C@H](CO)[C@@H](O)[C@H](O)[C@H]6O)C(C)(C)[C@@H]5CC[C@]43C)[C@@H]2C1
- IC50 (PC-3): > 10 µM
- IC50 (RT-112): > 10 µM
- IC50 (HCT-116): > 10 µM
- IC50 (A549): > 10 µM

- IC50 [1]: 1.7 µM
Compound: CC(=O)O[C@H]1CC(C)(C)C[C@H]2C3=CC[C@@H]4[C@@]5(C)CC[C@H](O[C@@H]6OC[C@H](O[C@@H]7O[C@H](CO)[C@@H](O)[C@H](O)[C@H]7O[C@@H]7OC[C@@H](O)[C@H](O)[C@H]7O)[C@H](O)[C@H]6O[C@@H]6O[C@H](CO)[C@@H](O)[C@H](O)[C@H]6O)C(C)(C)[C@@H]5CC[C@@]4(C)[C@]3(C)[C@@H](O)[C@@H](O)[C@@]12CO
- IC50 (PC-3): 9.4 µM
- IC50 (RT-112): 6.4 µM
- IC50 (HCT-116): 7.7 µM
- IC50 (A549): 6.1 µM

- IC50 [1]: 5.1 µM
Compound: CC(=O)O[C@@H]1[C@H](O)[C@]2(C)C(=CC[C@@H]3[C@@]4(C)CC[C@H](O[C@@H]5OC[C@H](O[C@@H]6O[C@H](CO)[C@@H](O)[C@H](O)[C@H]6O[C@@H]6OC[C@@H](O)[C@H](O)[C@H]6O)[C@H](O)[C@H]5O[C@@H]5O[C@H](CO)[C@@H](O)[C@H](O)[C@H]5O)C(C)(C)[C@@H]4CC[C@]32C)[C@@H]2CC(C)(C)C[C@H](O)[C@]12CO
- IC50 (PC-3): > 10 µM
- IC50 (RT-112): > 10 µM
- IC50 (HCT-116): > 10 µM
- IC50 (A549): > 10 µM

- IC50 [1]: 5.2 µM
Compound: CC(=O)OC[C@@]12[C@H](O)C[C@]3(C)C(=CC[C@@H]4[C@@]5(C)CC[C@H](O[C@@H]6OC[C@H](O[C@@H]7O[C@H](CO)[C@@H](O)[C@H](O)[C@H]7O[C@@H]7OC[C@@H](O)[C@H](O)[C@H]7O)[C@H](O)[C@H]6O[C@@H]6O[C@H](CO)[C@@H](O)[C@H](O)[C@H]6O)C(C)(C)[C@@H]5CC[C@]43C)[C@@H]1CC(C)(C)[C@@H](OC(C)=O)[C@@H]2O
- IC50 (PC-3): 9.9 µM
- IC50 (RT-112): > 10 µM
- IC50 (HCT-116): 6.8 µM
- IC50 (A549): 9 µM

- IC50 [1]: 23.1 µM
Compound: CC(=O)O[C@@H]1C[C@]2(C)C(=CC[C@@H]3[C@@]4(C)CC[C@H](O[C@@H]5OC[C@H](O[C@@H]6O[C@H](CO)[C@@H](O)[C@H](O)[C@H]6O[C@@H]6OC[C@@H](O)[C@H](O)[C@H]6O)[C@H](O)[C@H]5O[C@@H]5O[C@H](CO)[C@@H](O)[C@H](O)[C@H]5O)C(C)(C)[C@@H]4CC[C@]32C)[C@@H]2CC(C)(C)C[C@H](O)[C@]12CO
- IC50 (PC-3): > 10 µM
- IC50 (RT-112): > 10 µM
- IC50 (HCT-116): > 10 µM
- IC50 (A549): > 10 µM

- IC50 [1]: 3.2 µM
Compound: CC(=O)O[C@H]1[C@H](OC(C)=O)[C@]2(CO)[C@H](O)[C@H](O)[C@]3(C)C(=CC[C@@H]4[C@@]5(C)CC[C@H](O[C@@H]6OC[C@H](O[C@@H]7O[C@H](CO)[C@@H](O)[C@H](O)[C@H]7O[C@@H]7OC[C@@H](O)[C@H](O)[C@H]7O)[C@H](O)[C@H]6O[C@@H]6O[C@H](CO)[C@@H](O)[C@H](O)[C@H]6O)C(C)(C)[C@@H]5CC[C@]43C)[C@@H]2CC1(C)C
- IC50 (PC-3): > 10 µM
- IC50 (RT-112): 7.3 µM
- IC50 (HCT-116): > 10 µM
- IC50 (A549): 8.7 µM

Compound: COc1ccc(/C=C\c2cc(OC)c(OC)c(OC)c2)cc1O [COMBRETASTATIN A4]
- IC50 [1]: 0.37 µM

Compound: CC(=O)O[C@H]1C(=O)[C@@]2(C)[C@H]([C@H](OC(=O)c3ccccc3)[C@]3(O)C[C@H](OC(=O)[C@H](O)[C@@H](NC(=O)c4ccccc4)c4ccccc4)C(C)=C1C3(C)C)[C@]1(OC(C)=O)CO[C@@H]1C[C@@H]2O [PACLITAXEL]
- IC50 (PC-3): 0.04 µM
- IC50 (RT-112): 0.07 µM
- IC50 (A549): 0.7 µM
